US20150216136A1, “PLANT REGENERATION FROM PROTOPLASTS DERIVED FROM ELAEIS sp SUSPENSION CULTURES” (MALAYSIAN PALM OIL BOARD, priority 2012, published 2015)

What was measured:
Assay type in all cases: cell-based, Elaeis guineensis
oil palm protoplasts [1] = assay: Plant growth regulators (PGRs) optimization on agarose solidified cultures; conditions: within PGR combinations, Y3A or Y3D media
Experimental: The PGRs optimization was performed on agarose solidified cultures. All PGRs used were prepared at the concentration of 1 μM/μl and the pH was adjusted to 5.7. The filter-sterilized PGRs were added in 24 wells culture plate at different combinations and concentration as indicated in Table 3.
Protoplast division frequency was calculated by counting the number of protoplasts divided by the total number of protoplasts in one representative microscope field. Three microscopic fields were averaged to represent one experiment in which the experiment was performed in 3 replicates to give an average range of protoplast division frequency. A similar calculation procedure was used for microcolonies and microcalli formation frequencies.

microcalli = assay: Control of callus browning in agarose bead culture; conditions: additive in Y35N5D2iP liquid media surrounding agarose beads; AA 200 mg/l
Experimental: The mixture of protoplasts and agarose was prepared by using the same procedure for preparation of agarose solidified cultures with the exception that the protoplast pellet was resuspended in […] liquid media supplemented with the optimum PGRs and 0.6% w/v agarose sea plaque. Agarose beads were prepared by dropping 200 μl of the mixture into a 60 mm×15 mm petri dish. After agarose solidification, 10 ml of 21% v/v osmoticum solution was added to Petri dish and incubated at 28° C. in the dark for 3-5 days. Three types of osmoticum solutions were used: sucrose, glucose and mannitol. Each was dissolved in water, adjusting the pH to 5.7 and then filter-sterilized. The osmoticum solution was replaced with different liquid media in shaking condition at 50 rpm by refreshing the media at 14-day intervals. When the formation of microcolonies was observed, […] liquid media was changed to Y3 liquid media and the agarose beads were cultured until the microcalli were detected. […] The cultures were continued until the microcalli growth to embryogenic calli.

oil palm protoplasts [2] = assay: DNA microinjection mediated transformation of alginate layer-embedded protoplasts; conditions: in injected protoplasts at 28° C.
Experimental: Protoplasts were isolated from a 7 day subculture of a 3 month old embryogenic suspension culture as described above. After twice repeating the washing step, the supernatant was mostly removed leaving 3 ml Washing solution. The centrifuge tube containing the protoplast suspension was incubated in a vertical position in the dark for 24 hours at 28° C. After incubation, the protoplast suspension was diluted by 10 ml of Rinse solution and resuspended by inverting the centrifuge tube for 3-5 times, and then centrifuged at 60×g for 5 minutes at 22° C. After repeating the rinsing step, the supernatant was removed completely and the protoplast pellet was embedded with 3 ml filter-sterilized ([…]) alginate solution consisted of 1% w/v alginic acid sodium salt (A2158, Sigma) dissolved in Y3A liquid media (5.5% w/v sucrose and 11.9% w/v glucose supplemented with 10 μM NAA, 2 μM 2.4-D, 2 μM IBA, 2 μM GA3, 2 μM 2iP and 200 mg/L ascorbic acid) adjusted to pH 5.6, in which the Y3 macroelements was prepared without calcium chloride (CaCl2.2H2O).
Alginate-embedded protoplasts were distributed as a thin layer onto supporting media comprising, 1.5 mL filter-sterilized Y3A (5.5% w/v sucrose and 11.9% w/v glucose supplemented with 0.1% w/v CaCl2.2H2O) solidified with 1% w/v agarose sea plaque, in 35 mm×10 mm petri dish (no. 627161, Greiner Bio-One, Germany). […]

Row | Molecule | Cell division at concentration higher than 7 μM (oil palm protoplasts [1]) | further results
1 | O=C(O)COc1ccc(Cl)cc1Cl [2,4-D, 2,4-Dichlorophenoxyacetic acid] | inhibited cell division | 
2 | CC(C)=CCNc1ncnc2nc[nH]c12 [2iP, 2-γ-Dimethylallylaminopurine] | inhibited cell division | 
3 | O=C1O[C@H]([C@@H](O)CO)C(O)=C1O [AA, Ascorbic acid] |  | Microcalli browning / development of embryogenic callus (microcalli): developed embryogenic callus
4 | O=[N+]([O-])[O-].[Ag+] [AgNO3, Silver nitrate] |  | Microcalli browning / development of embryogenic callus (microcalli): did not solve the problem of browning
5 | C=C1C[C@]23C[C@@]1(O)CC[C@H]2[C@@]12C=C[C@H](O)[C@@](C)(C(=O)O1)[C@H]2[C@@H]3C(=O)O [GA3, Gibberellic acid A3] | inhibited cell division | 
6 | O=C(O)CCCc1c[nH]c2ccccc12 [IBA, Indole-3-butyric acid] | inhibited cell division | 
7 | Lucifer Yellow CH dilithium salt |  | Time the fluorescence property is maintained (oil palm protoplasts [2]): 48 h
